Test results published in US10798941B2, “Microbiocidal oxadiazole derivatives” (SYNGENTA PARTICIPATIONS AG, priority 2016, dated 2020).

Legend:
[1] = tested on: Glomerella Lagenarium (Colletotrichum Lagenarium); assay: Glomerella lagenarium (Colletotrichum lagenarium) liquid culture / cucumber / preventative (anthracnose); type: cell-based; details: Colletotrichum orbiculare; 20 ppm in the applied formulation; liquid culture in PDB, 24° C., inhibition of growth measured photometrically 3 to 4 days after application, vs untreated; read-out: disease control
Method in brief: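 Conidia from cryogenic storage were mixed into potato dextrose broth. This was added to compound diluted from DMSO into 0.025% Tween20, tested at 20 ppm. Plates were incubated in the dark at 24 °C and 96% relative humidity, and growth was read photometrically after 2–7 days as % activity versus untreated check.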

Phakopsora pachyrhizi = Phakopsora pachyrhizi / soybean / leaf disc preventative (Asian soybean rust); type: in vivo; details: foliar, 288 h, 200 ppm in the applied formulation, soybean leaf disks, inoculated one day after application, assessed 12 to 14 days after application, vs untreated, read-out: disease control
Method in brief: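 Read-out is percent disease control relative to untreated check discs, assessed once untreated discs show adequate disease, 12 to 14 days after application. Compounds, tested at 200 ppm in the applied formulation, are sprayed onto soybean leaf discs one day before inoculation with a spore suspension.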

Uromyces viciae-Fabae = assay: Uromyces viciae-fabae / field bean / leaf disc preventative (faba-bean rust); type: in vivo; details: foliar, 288 h, 100 ppm in the applied formulation, field bean leaf discs, inoculated two hours after application, assessed 12 days after application, vs untreated, read-out: disease control
Method: Leaf disks or leaf segments of various plant species are cut from plants grown in a greenhouse. The cut leaf disks or segments are placed in multiwell plates (24-well format) onto water agar. The leaf disks are sprayed with a test solution before (preventative) or after (curative) inoculation. Compounds to be tested are prepared as DMSO solutions (max. 10 mg/ml) which are diluted to the appropriate concentration with 0.025% Tween20 just before spraying. The inoculated leaf disks or segments are incubated under defined conditions (temperature, relative humidity, light, etc.) according to the respective test system. A single evaluation of disease level is carried out 3 to 14 days after inoculation, depending on the pathosystem. Percent disease control relative to the untreated check leaf disks or segments is then calculated.
Field bean leaf discs are placed on water agar in multiwell plates (96-well format) and 10 μl of the formulated test compound diluted in acetone and a spreader pipetted onto the leaf disc. Two hours after application leaf discs are inoculated by spraying a spore suspension on the lower leaf surface. The leaf discs are incubated in a climate cabinet at 22° C. with 18 hour day and 70% relative humidity. The activity of a compound is assessed as percent disease control compared to untreated when an appropriate level of disease damage appears in untreated check leaf disks (12 days after application).
The following compounds at 100 ppm in the applied formulation give at least 80% disease control in this test when compared to untreated control leaf discs under the same conditions, which show extensive disease development.

[2] = tested on: Puccinia recondita f. Sp. Tritici; assay: Puccinia recondita f. sp. tritici / wheat / leaf disc preventative (brown rust); type: in vivo; details: foliar, 168 h, 200 ppm in the applied formulation, wheat leaf segments cv. Kanzler, preventative, inoculated 1 day after application, assessed 7 to 9 days after application, vs untreated, read-out: disease control
Method in brief: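 Preventative leaf-segment test: spray application of diluted formulated compound on wheat cv. Kanzler, spore inoculation after 1 day. Percent control relative to untreated segments rated 7 to 9 days post-application, with incubation at 19° C, 75% relative humidity, 12 h photoperiod.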

[3] = tested on: Puccinia recondita f. Sp. Tritici; assay: Puccinia recondita f. sp. tritici / wheat / leaf disc curative (brown rust); type: in vivo; details: foliar, 144 h, 200 ppm in the applied formulation, wheat leaf segments cv. Kanzler, applied 1 day after inoculation, assessed 6 to 8 days after application, vs untreated, read-out: disease control
Method in brief: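 Segments of wheat (cultivar Kanzler) sit on agar and are spore-inoculated first; after one day in darkness at 19° C and 75% RH the diluted formulated compound is sprayed on. A 12 h photoperiod follows at the same temperature and humidity before disease is scored against untreated controls.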

Row | melting point [°C] | Compound | inhibition of growth at 20 ppm [1] [%] | pest or weed control at 200 ppm (Phakopsora pachyrhizi) [%] | pest or weed control at 100 ppm (Uromyces viciae-Fabae) [%] | pest or weed control at 200 ppm [2] [%] | pest or weed control at 200 ppm [3] [%]
1 | – | Cc1cc(C(F)(F)F)nn1Cc1ccc(-c2noc(C(F)(F)F)n2)cc1 [Compound 1.20, 3-[4-[[5-methyl-3-(trifluoromethyl)pyrazol-1-yl]methyl]phenyl]-5-(trifluoromethyl)-1,2,4-oxadiazole] | ≥ 80 | ≥ 80 | ≥ 80 | – | –
2 | 112.4 to 116.6 | FC(F)(F)c1nc(-c2ccc(Cn3nc4ccccc4n3)cc2)no1 [Compound 1.34, 3-[4-(benzotriazol-2-ylmethyl)phenyl]-5-(trifluoromethyl)-1,2,4-oxadiazole] | ≥ 80 | ≥ 80 | – | ≥ 80 | ≥ 80
3 | 142.3 to 143.2 | FC(F)(F)c1nc(-c2ccc(Cn3nnc4ccccc43)cc2)no1 [Compound 1.35, 3-[4-(benzotriazol-1-ylmethyl)phenyl]-5-(trifluoromethyl)-1,2,4-oxadiazole] | ≥ 80 | ≥ 80 | – | ≥ 80 | ≥ 80
4 | 63 to 71 | FC(F)(F)c1nc(-c2ccc(Cn3cncn3)c(Cl)c2)no1 [Compound 1.99, 3-[3-chloro-4-(1,2,4-triazol-1-ylmethyl)phenyl]-5-(trifluoromethyl)-1,2,4-oxadiazole] | ≥ 80 | ≥ 80 | – | ≥ 80 | ≥ 80
5 | 52 to 63 | Fc1cc(-c2noc(C(F)(F)F)n2)ccc1Cn1cncn1 [Compound 1.101, 3-[3-fluoro-4-(1,2,4-triazol-1-ylmethyl)phenyl]-5-(trifluoromethyl)-1,2,4-oxadiazole] | ≥ 80 | ≥ 80 | – | ≥ 80 | ≥ 80
6 | 99.4 to 102 | Cc1nn(Cc2ccc(-c3noc(C(F)(F)F)n3)cc2)c(C)c1C [Compound 1.146, 5-(trifluoromethyl)-3-[4-[(3,4,5-trimethylpyrazol-1-yl)methyl]phenyl]-1,2,4-oxadiazole] | ≥ 80 | ≥ 80 | – | ≥ 80 | ≥ 80
7 | 125 to 135 | O=C(c1cnn(Cc2ccc(-c3noc(C(F)(F)F)n3)cc2)c1)N1CCOCC1 [Compound 1.261, morpholino-[1-[[4-[5-(trifluoromethyl)-1,2,4-oxadiazol-3-yl]phenyl]methyl]pyrazol-4-yl]methanone] | ≥ 80 | ≥ 80 | – | ≥ 80 | ≥ 80
8 | 60 to 70 | CN(C)CCOC(=O)c1cnn(Cc2ccc(-c3noc(C(F)(F)F)n3)cc2)c1 [Compound 1.265, 2-(dimethylamino)ethyl 1-[[4-[5-(trifluoromethyl)-1,2,4-oxadiazol-3-yl]phenyl]methyl]pyrazole-4-carboxylate] | ≥ 80 | ≥ 80 | – | ≥ 80 | ≥ 80
9 | 154 to 156 | COC(=O)c1cn(Cc2ccc(-c3noc(C(F)(F)F)n3)cc2)nn1 [Compound 1.270, methyl 1-[[4-[5-(trifluoromethyl)-1,2,4-oxadiazol-3-yl]phenyl]methyl]triazole-4-carboxylate] | ≥ 80 | ≥ 80 | – | ≥ 80 | ≥ 80
10 | 91 to 96 | O=Cc1cnn(Cc2ccc(-c3noc(C(F)(F)F)n3)cc2)c1 [Compound 1.273, 1-[[4-[5-(trifluoromethyl)-1,2,4-oxadiazol-3-yl]phenyl]methyl]pyrazole-4-carbaldehyde] | ≥ 80 | ≥ 80 | – | ≥ 80 | ≥ 80
11 | 193 to 195 | CCNC(=O)c1cn(Cc2ccc(-c3noc(C(F)(F)F)n3)cc2)nn1 [Compound 1.274, N-ethyl-1-[[4-(5-(trifluoromethyl)-1,2,4-oxadiazol-3-yl]phenyl]methyl]triazole-4-carboxamide] | ≥ 80 | ≥ 80 | – | ≥ 80 | ≥ 80
12 | 135 to 137 | CON(C)C(=O)c1cn(Cc2ccc(-c3noc(C(F)(F)F)n3)cc2)nn1 [Compound 1.275, N-methoxy-N-methyl-1-[[4-[5-(trifluoromethyl)-1,2,4-oxadiazol-3-yl]phenyl]methyl]triazole-4-carboxamide] | ≥ 80 | ≥ 80 | – | ≥ 80 | ≥ 80
13 | 198 to 200 | CONC(=O)c1cn(Cc2ccc(-c3noc(C(F)(F)F)n3)cc2)nn1 [Compound 1.277, N-methoxy-1-[[4-[5-(trifluoromethyl)-1,2,4-oxadiazol-3-yl]phenyl]methyl]triazole-4-carboxamide] | ≥ 80 | ≥ 80 | – | ≥ 80 | ≥ 80
14 | 103 to 107 | COC(=O)c1cnnn1Cc1ccc(-c2noc(C(F)(F)F)n2)cc1 [Compound 1.279, methyl 3-[[4-[5-(trifluoromethyl)-1,2,4-oxadiazol-3-yl]phenyl]methyl]triazole-4-carboxylate] | ≥ 80 | ≥ 80 | – | ≥ 80 | ≥ 80
15 | 168 to 170 | CN(C)C(=O)c1cn(Cc2ccc(-c3noc(C(F)(F)F)n3)cc2)nn1 [Compound 1.280, N,N-dimethyl-1-[[4-[5-(trifluoromethyl)-1,2,4-oxadiazol-3-yl]phenyl]methyl]triazole-4-carboxamide] | ≥ 80 | ≥ 80 | – | ≥ 80 | ≥ 80
16 | 204 to 206 | O=C(Nc1ccncc1)c1cn(Cc2ccc(-c3noc(C(F)(F)F)n3)cc2)nn1 [Compound 1.283, N-(4-pyridyl)-1-[[4-[5-(trifluoromethyl)-1,2,4-oxadiazol-3-yl]phenyl]methyl]triazole-4-carboxamide] | ≥ 80 | ≥ 80 | – | ≥ 80 | ≥ 80
17 | 57 to 63 | C#CCON=Cc1cnn(Cc2ccc(-c3noc(C(F)(F)F)n3)cc2)c1 [Compound 1.290, N-prop-2-ynoxy-1-[1-[[4-[5-(trifluoromethyl)-1,2,4-oxadiazol-3-yl]phenyl]methyl]pyrazol-4-yl]methanimine] | ≥ 80 | ≥ 80 | – | ≥ 80 | ≥ 80
18 | 111.1 to 114.9 | CS(=O)(=O)N1CCN(Cc2ccc(-c3noc(C(F)(F)F)n3)cc2)CC1 [Compound 1.305, 3-[4-[(4-methylsulfonyl-piperazin-1-yl)methyl]phenyl]-5-(trifluoromethyl)-1,2,4-oxadiazole] | ≥ 80 | ≥ 80 | – | ≥ 80 | ≥ 80
